Patent publication US20090274773A1, “ANTIPROLIFERATIVE COMBINATION COMPRISING CYC-682 AND A CYTOTOXIC AGENT” (Cyclacel Limited, priority 2005, published 2009)

What was measured:
Assay in all cases: MTT growth inhibition assay, single agent
Type in all cases: cell-based, human
COLO205 = settings: Homo sapiens, COLO 205, 24 hours exposure, read-out: Antiproliferative effects IC50s (MTT assay)
Protocol: (§1) All cell lines were obtained from the ATCC (Rockville, Md.). Cells were grown as monolayers in RPMI medium supplemented with 10% fetal calf serum (Invitrogen, Cergy-Pontoise, France), 2 mM glutamine, 100 units/ml penicillin and 100 μg/ml streptomycin. All cells were split twice a week using trypsin/EDTA (0.25% and 0.02%, respectively; Invitrogen, Cergy-Pontoise, France) and seeded at a concentration of 2.5×10^4 cells/ml. All cell lines were tested regularly for Mycoplasma contamination by PCR using a Stratagene kit (La Jolla, Calif.).
(§2) The MTT assay was carried out as described previously (Hansen M B, Nielsen S E, Berg K. Re-examination and further development of a precise and rapid dye method for measuring cell growth/cell kill. J Immunol Methods. 1989 May 12; 119(2):203-10). In brief, cells were seeded in 96-well tissue culture plates at a density of 2×10^3 cells/well. Cell viability was determined after a 120-hour incubation, by the calorimetric conversion of yellow, water-soluble tetrazolium MTT (3-[4,5-dimethylthiazol-2-yl]-2,5-diphenyltetrazolium bromide; Sigma, Saint-Quentin Fallavier, France), into purple, water-insoluble formazan. This reaction is catalyzed by mitochondrial dehydrogenases and is used to estimate the relative number of viable cells (Mosmann, T, Rapid calorimetric assay for cellular growth and survival: application to proliferation and cytotoxicity assays. J Immunol Methods. 1983 Dec. 16; 65 (1-2):55-63). Cells were incubated with 0.4 mg/ml MTT for 4 hours at 37° C. After incubation, the supernatant was discarded, the cell pellet was resuspended in 0.1 ml of DMSO and the absorbance was measured at 560 nm using a microplate reader (Dynatech, Michigan). Wells with untreated cells or with drug-containing medium without cells were used as positive and negative controls, respectively. Growth inhibition curves were plotted as a percentage of untreated control cells.
(§3) The cells were seeded at 2×10^3 cells/well in 96-well plates and treated 24 hours later with increasing concentrations of CYC682. After incubation times of 1 hour, 24 hours or 48 hours, the cells were washed and post-incubated in drug-free medium for 72 hours. Growth inhibition was then determined by the MTT assay.

MCF7 = settings: Homo sapiens, 24 hours exposure, read-out: Antiproliferative effects IC50s (MTT assay)
Protocol: as §1, §2, §3

MDA-MB-435 = settings: Homo sapiens, 24 hours exposure, read-out: Antiproliferative effects IC50s (MTT assay)
Protocol: as §1, §2, §3

HT29 = settings: Homo sapiens, HT-29, 24 hours exposure, read-out: Antiproliferative effects IC50s (MTT assay)
Protocol: as §1, §2, §3

OVCAR1 = settings: Homo sapiens, 24 hours exposure, read-out: Antiproliferative effects IC50s (MTT assay)
Protocol: as §1, §2, §3

HCT116 = settings: Homo sapiens, HCT-116, 24 hours exposure, read-out: Antiproliferative effects IC50s (MTT assay)
Protocol: as §1, §2, §3

IGROV1 = settings: Homo sapiens, IGROV-1, 24 hours exposure, read-out: Antiproliferative effects IC50s (MTT assay)
Protocol: as §1, §2, §3

HOP92 = settings: Homo sapiens, HOP-92, 24 hours exposure, read-out: Antiproliferative effects IC50s (MTT assay)
Protocol: as §1, §2, §3

HOP62 = settings: Homo sapiens, HOP-62, 24 hours exposure, read-out: Antiproliferative effects IC50s (MTT assay)
Protocol: as §1, §2, §3

HCC2998 = settings: Homo sapiens, HCC 2998, 24 hours exposure, read-out: Antiproliferative effects IC50s (MTT assay)
Protocol: as §1, §2, §3

| IC50 (COLO205) [nM] | IC50 (MCF7) [nM] | IC50 (MDA-MB-435) [nM] | IC50 (HT29) [nM] | IC50 (OVCAR1) [nM] | IC50 (HCT116) [nM] | IC50 (HCC2998) [nM] | SMILES | IC50 (IGROV1) [nM] | IC50 (HOP92) [nM] | IC50 (HOP62) [nM] |
| --- | --- | --- | --- | --- | --- | --- | --- | --- | --- | --- |
| 1500 ± 500 | 700 ± 100 | 2000 ± 400 | 1070 ± 160 | 1000 ± 200 | 100 ± 20 | 700 ± 140 | COc1cccc2c1C(=O)c1c(O)c3c(c(O)c1C2=O)C[C@@](O)(C(=O)CO)C[C@@H]3O[C@H]1C[C@H](N)[C@H](O)[C@H](C)O1 [Doxorubicin] | 1300 ± 300 | 100 ± 50 | 140 ± 40 |
| 6 ± 1 | 10 ± 4 | 10 ± 2 | 10 ± 2 | 50000 ± 120 | 10 ± 20 | 4 ± 1 | CC(=O)O[C@@]12CO[C@@H]1C[C@H](O)[C@@]1(C)C(=O)[C@H](O)C3=C(C)[C@@H](OC(=O)[C@H](O)[C@@H](NC(=O)OC(C)(C)C)c4ccccc4)C[C@@](O)([C@@H](OC(=O)c4ccccc4)[C@H]21)C3(C)C [Docetaxel] | 20 ± 10 | 5 ± 1 | 20 ± 40 |
